Data published in patent US11040028B2, “Penicinotam derivative, preparation method and use thereof” (OCEAN UNIVERSITY OF CHINA, priority 2017, dated 2021).

The compounds below were run on human fibrosarcoma cells HT-1080 (assay: Anti-fibrosis activity test: inhibition of proliferation of human fibrosarcoma cells HT-1080 (CCK-8)). Details: Homo sapiens, HT-1080, 48 h, human fibrosarcoma cells HT-1080, CCK-8, 48 hours.
Type: cell-based
Outline: (§1)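 A CCK-8 proliferation assay was run: cells at 2×10^4 cells/mL, adherent for 24 h, then incubated 48 h at 37° C with compound dilutions. A450 was recorded 2 h after CCK-8 addition and converted to percent inhibition versus blank for IC50 determination.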

Structure (SMILES)	IC50 [mM]
CN(C)CCCn1c2c(c(=O)c3ccccc31)C(=O)n1cccc1-2 [Compound 658a, 4-(3-(Dimethylamino)propyl)-9H-pyrrolizino[1,2-b]quinoline-9,10(4H)-dione]	0.05 to 5
O=C1c2c(nc3c(F)cccc3c2O)-c2cccn21 [Compound 444b, 5-fluoro-9-hydroxy-10H-pyrrolizino[1,2-b]quinolin-10-one]	0.05 to 5
N#Cc1ccc(COc2c3c(nc4ccccc24)-c2cccn2C3=O)cc1 [Compound 590b, 4-(((10-oxo-10H-pyrrolizino[1,2-b]quinolin-9-yl)oxy)methyl)benzonitrile]	0.05 to 5
C#CCn1c2c(c(=O)c3ccccc31)C(=O)n1cccc1-2 [Compound 7a, 4-(Prop-2-yn-1-yl)-9H-pyrrolizino[1,2-b]quinoline-9,10(4H)-dione]	0.05 to 5
O=C1c2c(n(Cc3ccc(F)cc3F)c3ccccc3c2=O)-c2cccn21 [Compound 578a, 4-(2,4-Difluorobenzyl)-9H-pyrrolizino[1,2-b]quinoline-9,10(4H)-dione]	< 0.05

Each compound was assayed on NF-κB (assay: Immunological activity test: inhibition of NF-κB activity). Details: initial concentration of 30 μM; a/b isomers given as first/second symbol; read-out: IC50 (μM), inhibitory activity against NF-κB.
Type: cell-based
Outline: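 Compounds were first screened for inhibition of NF-κB activity at 30 μM, with parthenolide as the positive control. IC50 values were then determined for the compounds by further analysis of the assay data.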

Structure (SMILES)	IC50 [µM]
CN(C)CCCn1c2c(c(=O)c3ccccc31)C(=O)n1cccc1-2 [Compound 658a, 4-(3-(Dimethylamino)propyl)-9H-pyrrolizino[1,2-b]quinoline-9,10(4H)-dione]	0.001 to 0.1
O=C1c2c(nc3c(F)cccc3c2O)-c2cccn21 [Compound 444b, 5-fluoro-9-hydroxy-10H-pyrrolizino[1,2-b]quinolin-10-one]	1 to 10
N#Cc1ccc(COc2c3c(nc4ccccc24)-c2cccn2C3=O)cc1 [Compound 590b, 4-(((10-oxo-10H-pyrrolizino[1,2-b]quinolin-9-yl)oxy)methyl)benzonitrile]	1 to 10
C#CCn1c2c(c(=O)c3ccccc31)C(=O)n1cccc1-2 [Compound 7a, 4-(Prop-2-yn-1-yl)-9H-pyrrolizino[1,2-b]quinoline-9,10(4H)-dione]	1 to 10
O=C1c2c(n(Cc3ccc(F)cc3F)c3ccccc3c2=O)-c2cccn21 [Compound 578a, 4-(2,4-Difluorobenzyl)-9H-pyrrolizino[1,2-b]quinoline-9,10(4H)-dione]	1 to 10

Each compound was assayed on cardiac fibroblast RAT-iCell-C002 (assay: Anti-fibrosis activity test: inhibition of proliferation of cardiac fibroblast RAT-iCell-C002 (CCK-8)). Details: Cardiac fibroblast, 48 h, cardiac fibroblast RAT-iCell-C002, CCK-8, 48 hours.
Type: cell-based
Outline: as §1

Structure (SMILES)	IC50 [mM]
CN(C)CCCn1c2c(c(=O)c3ccccc31)C(=O)n1cccc1-2 [Compound 658a, 4-(3-(Dimethylamino)propyl)-9H-pyrrolizino[1,2-b]quinoline-9,10(4H)-dione]	0.05 to 5
O=C1c2c(nc3c(F)cccc3c2O)-c2cccn21 [Compound 444b, 5-fluoro-9-hydroxy-10H-pyrrolizino[1,2-b]quinolin-10-one]	0.05 to 5
N#Cc1ccc(COc2c3c(nc4ccccc24)-c2cccn2C3=O)cc1 [Compound 590b, 4-(((10-oxo-10H-pyrrolizino[1,2-b]quinolin-9-yl)oxy)methyl)benzonitrile]	0.05 to 5
C#CCn1c2c(c(=O)c3ccccc31)C(=O)n1cccc1-2 [Compound 7a, 4-(Prop-2-yn-1-yl)-9H-pyrrolizino[1,2-b]quinoline-9,10(4H)-dione]	0.05 to 5
O=C1c2c(n(Cc3ccc(F)cc3F)c3ccccc3c2=O)-c2cccn21 [Compound 578a, 4-(2,4-Difluorobenzyl)-9H-pyrrolizino[1,2-b]quinoline-9,10(4H)-dione]	0.05 to 5

The compounds below were run on mouse macrophages (RAW264.7) (assay: Lipopolysaccharide-induced NO secretion in macrophages (Griess)). Details: Mus musculus, RAW264.7, 24 h, RAW264.7, LPS 1 μg/ml, a/b isomers given as first/second symbol, read-out: IC50 (μM), inhibition of lipopolysaccharide-induced NO secretion in macrophages.
Type: cell-based
Outline: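 Absorbance at 548 nm after Griess reagent addition to culture supernatant gave NO content; inhibition rate was derived relative to blank control. Cells were mouse RAW264.7 macrophages exposed to compounds and 1 μg/ml LPS for 24 hours.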

Structure (SMILES)	IC50 [µM]
CN(C)CCCn1c2c(c(=O)c3ccccc31)C(=O)n1cccc1-2 [Compound 658a, 4-(3-(Dimethylamino)propyl)-9H-pyrrolizino[1,2-b]quinoline-9,10(4H)-dione]	1 to 10
O=C1c2c(nc3c(F)cccc3c2O)-c2cccn21 [Compound 444b, 5-fluoro-9-hydroxy-10H-pyrrolizino[1,2-b]quinolin-10-one]	1 to 10
N#Cc1ccc(COc2c3c(nc4ccccc24)-c2cccn2C3=O)cc1 [Compound 590b, 4-(((10-oxo-10H-pyrrolizino[1,2-b]quinolin-9-yl)oxy)methyl)benzonitrile]	1 to 10
C#CCn1c2c(c(=O)c3ccccc31)C(=O)n1cccc1-2 [Compound 7a, 4-(Prop-2-yn-1-yl)-9H-pyrrolizino[1,2-b]quinoline-9,10(4H)-dione]	0.1 to 1
O=C1c2c(n(Cc3ccc(F)cc3F)c3ccccc3c2=O)-c2cccn21 [Compound 578a, 4-(2,4-Difluorobenzyl)-9H-pyrrolizino[1,2-b]quinoline-9,10(4H)-dione]	1 to 10

These compounds were tested on human hepatic stellate cells LX-2 (assay: Anti-fibrosis activity test: inhibition of proliferation of human hepatic stellate cells LX-2 (CCK-8)). Details: Homo sapiens, 48 h, human hepatic stellate cells LX-2, CCK-8, 48 hours.
Type: cell-based
Outline: as §1

Structure (SMILES)	IC50 [mM]
CN(C)CCCn1c2c(c(=O)c3ccccc31)C(=O)n1cccc1-2 [Compound 658a, 4-(3-(Dimethylamino)propyl)-9H-pyrrolizino[1,2-b]quinoline-9,10(4H)-dione]	0.05 to 5
O=C1c2c(nc3c(F)cccc3c2O)-c2cccn21 [Compound 444b, 5-fluoro-9-hydroxy-10H-pyrrolizino[1,2-b]quinolin-10-one]	0.05 to 5
N#Cc1ccc(COc2c3c(nc4ccccc24)-c2cccn2C3=O)cc1 [Compound 590b, 4-(((10-oxo-10H-pyrrolizino[1,2-b]quinolin-9-yl)oxy)methyl)benzonitrile]	0.05 to 5
C#CCn1c2c(c(=O)c3ccccc31)C(=O)n1cccc1-2 [Compound 7a, 4-(Prop-2-yn-1-yl)-9H-pyrrolizino[1,2-b]quinoline-9,10(4H)-dione]	0.05 to 5
O=C1c2c(n(Cc3ccc(F)cc3F)c3ccccc3c2=O)-c2cccn21 [Compound 578a, 4-(2,4-Difluorobenzyl)-9H-pyrrolizino[1,2-b]quinoline-9,10(4H)-dione]	0.05 to 5

These compounds were tested on human embryonic lung fibroblast IMR-90 (assay: Anti-fibrosis activity test: inhibition of proliferation of human embryonic lung fibroblast IMR-90 (CCK-8)). Details: human embryonic lung fibroblast IMR-90, CCK-8, 48 hours.
Type: cell-based
Outline: as §1

Structure (SMILES)	IC50 [mM]
CN(C)CCCn1c2c(c(=O)c3ccccc31)C(=O)n1cccc1-2 [Compound 658a, 4-(3-(Dimethylamino)propyl)-9H-pyrrolizino[1,2-b]quinoline-9,10(4H)-dione]	0.05 to 5
O=C1c2c(nc3c(F)cccc3c2O)-c2cccn21 [Compound 444b, 5-fluoro-9-hydroxy-10H-pyrrolizino[1,2-b]quinolin-10-one]	0.05 to 5
N#Cc1ccc(COc2c3c(nc4ccccc24)-c2cccn2C3=O)cc1 [Compound 590b, 4-(((10-oxo-10H-pyrrolizino[1,2-b]quinolin-9-yl)oxy)methyl)benzonitrile]	0.05 to 5
C#CCn1c2c(c(=O)c3ccccc31)C(=O)n1cccc1-2 [Compound 7a, 4-(Prop-2-yn-1-yl)-9H-pyrrolizino[1,2-b]quinoline-9,10(4H)-dione]	0.05 to 5
O=C1c2c(n(Cc3ccc(F)cc3F)c3ccccc3c2=O)-c2cccn21 [Compound 578a, 4-(2,4-Difluorobenzyl)-9H-pyrrolizino[1,2-b]quinoline-9,10(4H)-dione]	0.05 to 5

The compounds below were run on human lung fibroblasts HFL1 (assay: Anti-fibrosis activity test: inhibition of proliferation of human lung fibroblasts HFL1 (CCK-8)). Details: Homo sapiens, HFL1, 48 h, human lung fibroblasts HFL1, CCK-8, 48 hours.
Type: cell-based
Outline: as §1

Structure (SMILES)	IC50 [mM]
CN(C)CCCn1c2c(c(=O)c3ccccc31)C(=O)n1cccc1-2 [Compound 658a, 4-(3-(Dimethylamino)propyl)-9H-pyrrolizino[1,2-b]quinoline-9,10(4H)-dione]	0.05 to 5
O=C1c2c(nc3c(F)cccc3c2O)-c2cccn21 [Compound 444b, 5-fluoro-9-hydroxy-10H-pyrrolizino[1,2-b]quinolin-10-one]	0.05 to 5
N#Cc1ccc(COc2c3c(nc4ccccc24)-c2cccn2C3=O)cc1 [Compound 590b, 4-(((10-oxo-10H-pyrrolizino[1,2-b]quinolin-9-yl)oxy)methyl)benzonitrile]	0.05 to 5
C#CCn1c2c(c(=O)c3ccccc31)C(=O)n1cccc1-2 [Compound 7a, 4-(Prop-2-yn-1-yl)-9H-pyrrolizino[1,2-b]quinoline-9,10(4H)-dione]	0.05 to 5
O=C1c2c(n(Cc3ccc(F)cc3F)c3ccccc3c2=O)-c2cccn21 [Compound 578a, 4-(2,4-Difluorobenzyl)-9H-pyrrolizino[1,2-b]quinoline-9,10(4H)-dione]	0.05 to 5

What follows are compounds tested on human dermal fibroblasts CCC-ESF-1 (assay: Anti-fibrosis activity test: inhibition of proliferation of human dermal fibroblasts CCC-ESF-1 (CCK-8)). Details: Fibroblast; human dermal fibroblasts CCC-ESF-1, CCK-8, 48 hours.
Type: cell-based
Outline: as §1

Structure (SMILES)	IC50 [mM]
CN(C)CCCn1c2c(c(=O)c3ccccc31)C(=O)n1cccc1-2 [Compound 658a, 4-(3-(Dimethylamino)propyl)-9H-pyrrolizino[1,2-b]quinoline-9,10(4H)-dione]	0.05 to 5
O=C1c2c(nc3c(F)cccc3c2O)-c2cccn21 [Compound 444b, 5-fluoro-9-hydroxy-10H-pyrrolizino[1,2-b]quinolin-10-one]	0.05 to 5
N#Cc1ccc(COc2c3c(nc4ccccc24)-c2cccn2C3=O)cc1 [Compound 590b, 4-(((10-oxo-10H-pyrrolizino[1,2-b]quinolin-9-yl)oxy)methyl)benzonitrile]	0.05 to 5
C#CCn1c2c(c(=O)c3ccccc31)C(=O)n1cccc1-2 [Compound 7a, 4-(Prop-2-yn-1-yl)-9H-pyrrolizino[1,2-b]quinoline-9,10(4H)-dione]	< 0.05
O=C1c2c(n(Cc3ccc(F)cc3F)c3ccccc3c2=O)-c2cccn21 [Compound 578a, 4-(2,4-Difluorobenzyl)-9H-pyrrolizino[1,2-b]quinoline-9,10(4H)-dione]	0.05 to 5

The compounds below were run on BHK-21 cells (assay: Anti-fibrosis activity test: inhibition of BHK-21 cell proliferation (CCK-8)). Details: Mesocricetus auratus, BHK-21, 48 h, CCK-8, 48 hours after administration.
Type: cell-based
Outline: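 BHK-21 cells seeded at 2×10^4 cells/mL, allowed to adhere 24 h at 37° C, 5% CO2, then exposed to compounds at graded concentrations in triplicate for 48 h. CCK-8 added for 2 h and absorbance read at 450 nm; inhibition rate taken as (1−Ai/Ao)×100% and IC50 fitted.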

Structure (SMILES)	IC50 [mM]
CN(C)CCCn1c2c(c(=O)c3ccccc31)C(=O)n1cccc1-2 [Compound 658a, 4-(3-(Dimethylamino)propyl)-9H-pyrrolizino[1,2-b]quinoline-9,10(4H)-dione]	0.05 to 5
O=C1c2c(nc3c(F)cccc3c2O)-c2cccn21 [Compound 444b, 5-fluoro-9-hydroxy-10H-pyrrolizino[1,2-b]quinolin-10-one]	0.05 to 5
N#Cc1ccc(COc2c3c(nc4ccccc24)-c2cccn2C3=O)cc1 [Compound 590b, 4-(((10-oxo-10H-pyrrolizino[1,2-b]quinolin-9-yl)oxy)methyl)benzonitrile]	0.05 to 5
C#CCn1c2c(c(=O)c3ccccc31)C(=O)n1cccc1-2 [Compound 7a, 4-(Prop-2-yn-1-yl)-9H-pyrrolizino[1,2-b]quinoline-9,10(4H)-dione]	< 0.05
O=C1c2c(n(Cc3ccc(F)cc3F)c3ccccc3c2=O)-c2cccn21 [Compound 578a, 4-(2,4-Difluorobenzyl)-9H-pyrrolizino[1,2-b]quinoline-9,10(4H)-dione]	0.05 to 5
